“And” between values parts separate entries of the source, which are not always exact repeats. Identical values can stand only once. Inconclusive results are not listed.
System: BDF1 mice, colon carcinoma 38 sc, T/C %
Assay: NCI In Vivo Anticancer Drug Screen. Data for tumor model Colon Carcinoma 38 (subcutaneous) in B6D2F1 (BDF1) mice
Conditions: endpoint: median tumor weight (est.), higher = larger tumour
Description: The antitumor activity of compounds was measured in mice bearing transplantable tumors. Survival or tumor size were measured and the results are expressed as the measurement made in the treated group (T) divided by the measurement made in the vehicle treated control group (C). The tumor model used in this assay is Colon Carcinoma 38 (subcutaneous) in B6D2F1 (BDF1) mice

[1] = dose: 1.5 mg/kg/injection, schedule: Q07DX002 (ip), vehicle: saline
[2] = dose: 12.5 mg/kg/injection, schedule: Q07DX002 (ip), vehicle: saline with Tween-80
[3] = dose: 25.0 mg/kg/injection, schedule: Q07DX002 (ip), vehicle: saline with Tween-80
[4] = dose: 50.0 mg/kg/injection, schedule: Q07DX002 (ip), vehicle: saline with Tween-80
[5] = dose: 50.0 mg/kg/injection, schedule: Q07DX002 (ip), vehicle: saline
[6] = dose: 100.0 mg/kg/injection, schedule: Q07DX002 (ip), vehicle: saline
[7] = dose: 200.0 mg/kg/injection, schedule: Q07DX002 (ip), vehicle: saline
[8] = dose: 400.0 mg/kg/injection, schedule: Q07DX002 (ip), vehicle: saline
[9] = dose: 200.0 mg/kg/injection, schedule: Q07DX002 (ip), vehicle: Klucel (hydroxypropylcellulose) (HPC)
[10] = dose: 400.0 mg/kg/injection, schedule: Q07DX002 (ip), vehicle: Klucel (hydroxypropylcellulose) (HPC)
[11] = dose: 25.0 mg/kg/injection, schedule: Q07DX002 (ip), vehicle: Klucel (hydroxypropylcellulose) (HPC)
[12] = dose: 50.0 mg/kg/injection, schedule: Q07DX002 (ip), vehicle: Klucel (hydroxypropylcellulose) (HPC)
[13] = dose: 100.0 mg/kg/injection, schedule: Q07DX002 (ip), vehicle: Klucel (hydroxypropylcellulose) (HPC)

COC(=O)C(N)CCCCNc1ccc2c(cc1=O)C(NC(C)=O)CCc1cc(OC)c(OC)c(OC)c1-2 (centres undefined)
T/C (dose: 287.0 mg/kg/injection, schedule: Q07DX002 (ip), vehicle: saline): 78 % of control

[Cl][Pt+2][Cl].[NH-]C1CCC1.[NH2-]
T/C [1]: 95 % of control
T/C (dose: 3.0 mg/kg/injection, schedule: Q07DX002 (ip), vehicle: saline): 64 % of control
T/C (dose: 12.0 mg/kg/injection, schedule: Q07DX002 (ip), vehicle: saline): 43 % of control and 49 % of control
T/C (dose: 24.0 mg/kg/injection, schedule: Q07DX002 (ip), vehicle: saline): 13 % of control

CCc1ccc(C2=C(O)C(=O)C(c3ccc(CC)cc3)=C(O)C2=O)cc1
T/C (dose: 3.12 mg/kg/injection, schedule: Q07DX002 (ip), vehicle: saline with Tween-80): 51 % of control
T/C [2]: 124 % of control
T/C [3]: 96 % of control
T/C [4]: 81 % of control

NS(=O)(=O)OCCCCCCCOS(N)(=O)=O
T/C [3]: 124 % of control
T/C (dose: 200.0 mg/kg/injection, schedule: Q07DX002 (ip), vehicle: saline with Tween-80): 9 % of control and 16 % of control

CN(C)CCN(C)CC(C)(C)C(=O)/C=C/c1ccccc1
T/C (dose: 31.25 mg/kg/injection, schedule: Q07DX002 (ip), vehicle: saline): 119 % of control
T/C (dose: 62.5 mg/kg/injection, schedule: Q07DX002 (ip), vehicle: saline): 11 % of control
T/C (dose: 125.0 mg/kg/injection, schedule: Q07DX002 (ip), vehicle: saline): 52 % of control

N#C[C@H](OC1OC(COC2OC(CO)C(O)C(O)C2O)C(O)C(O)C1O)c1ccccc1 (some centres undefined)
T/C [5]: 76 % of control
T/C (dose: 50.0 mg/kg/injection, schedule: Q07DX002 (ip), vehicle: water): 70 % of control
T/C [6]: 103 % of control
T/C (dose: 100.0 mg/kg/injection, schedule: Q07DX002 (ip), vehicle: water): 70 % of control
T/C [7]: 62 % of control
T/C (dose: 200.0 mg/kg/injection, schedule: Q07DX002 (ip), vehicle: water): 85 % of control
T/C [8]: 76 % of control
T/C (dose: 400.0 mg/kg/injection, schedule: Q07DX002 (ip), vehicle: water): 112 % of control
T/C (dose: 800.0 mg/kg/injection, schedule: Q07DX002 (ip), vehicle: saline): 87 % of control
T/C (dose: 800.0 mg/kg/injection, schedule: Q07DX002 (ip), vehicle: water): 83 % of control
T/C (dose: 1600.0 mg/kg/injection, schedule: Q07DX002 (ip), vehicle: saline): 98 % of control
T/C (dose: 1600.0 mg/kg/injection, schedule: Q07DX002 (ip), vehicle: water): 106 % of control

C[C@@H]1C[C@H]2[C@@H]3CCC4=CC(=O)C=C[C@]4(C)[C@@]3(F)[C@@H](O)C[C@]2(C)[C@@]1(O)C(=O)CO
T/C (dose: 6.25 mg/kg/injection, schedule: Q07DX002 (ip), vehicle: Klucel (hydroxypropylcellulose) (HPC)): 156 % of control
T/C [9]: 53 % of control and 58 % of control
T/C [10]: 25 % of control

O=CC(NC(=O)N(CCCl)N=O)C(O)C(O)C(O)CO (centres undefined)
T/C (dose: 0.47 mg/kg/injection, schedule: Q07DX003 (ip), vehicle: saline): 102 % of control
T/C (dose: 0.94 mg/kg/injection, schedule: Q07DX003 (ip), vehicle: saline): 98 % of control
T/C [1]: 105 % of control
T/C (dose: 3.75 mg/kg/injection, schedule: Q07DX003 (ip), vehicle: saline): 68 % of control
T/C (dose: 4.0 mg/kg/injection, schedule: Q07DX002 (ip), vehicle: saline): 92 % of control
T/C (dose: 6.0 mg/kg/injection, schedule: Q07DX003 (ip), vehicle: saline): 68 % of control
T/C (dose: 7.5 mg/kg/injection, schedule: Q07DX003 (ip), vehicle: saline): 68 % of control
T/C (dose: 8.0 mg/kg/injection, schedule: Q07DX002 (ip), vehicle: saline): 57 % of control
T/C (dose: 12.0 mg/kg/injection, schedule: Q07DX003 (ip), vehicle: saline): 82 % of control
T/C (dose: 15.0 mg/kg/injection, schedule: Q07DX003 (ip), vehicle: saline): 43 % of control
T/C (dose: 16.0 mg/kg/injection, schedule: Q07DX002 (ip), vehicle: saline): 43 % of control
T/C (dose: 24.0 mg/kg/injection, schedule: Q07DX003 (ip), vehicle: saline): 57 % of control

ClC1C(Cl)C(Cl)C(Cl)C(Cl)C1Cl (centres undefined)
T/C [11]: 103 % of control
T/C [12]: 88 % of control
T/C (dose: 56.0 mg/kg/injection, schedule: Q07DX002 (ip), vehicle: saline with Tween-80): 109 % of control and 95 % of control
T/C [13]: 71 % of control
T/C (dose: 112.0 mg/kg/injection, schedule: Q07DX002 (ip), vehicle: saline with Tween-80): 69 % of control and 82 % of control
T/C [9]: 113 % of control
T/C [10]: 118 % of control
T/C (dose: 450.0 mg/kg/injection, schedule: Q07DX002 (ip), vehicle: saline with Tween-80): 80 % of control and 85 % of control

Nc1nncs1
T/C (dose: 12.5 mg/kg/injection, schedule: Q07DX002 (ip), vehicle: saline): 71 % of control
T/C (dose: 25.0 mg/kg/injection, schedule: Q07DX002 (ip), vehicle: saline): 114 % of control
T/C [5]: 78 % of control
T/C (dose: 50.0 mg/kg/injection, schedule: Q07DX003 (ip), vehicle: saline): 74 % of control
T/C [6]: 68 % of control
T/C (dose: 100.0 mg/kg/injection, schedule: Q07DX003 (ip), vehicle: saline): 78 % of control and 79 % of control
T/C [7]: 53 % of control
T/C (dose: 200.0 mg/kg/injection, schedule: Q07DX003 (ip), vehicle: saline): 58 % of control and 74 % of control
T/C [8]: 65 % of control
T/C (dose: 400.0 mg/kg/injection, schedule: Q07DX003 (ip), vehicle: saline): 35 % of control and 38 % of control
T/C (dose: 800.0 mg/kg/injection, schedule: Q07DX003 (ip), vehicle: saline): 51 % of control and 53 % of control

O=C([CH-]C(=O)C(F)(F)F)c1ccccc1.O=C([CH-]C(=O)C(F)(F)F)c1ccccc1.O=C([CH-]C(=O)C(F)(F)F)c1ccccc1.O=C([CH-]C(=O)C(F)(F)F)c1ccccc1.[Eu+3].c1ccncc1
T/C [11]: 91 % of control
T/C [12]: 88 % of control
T/C [13]: 76 % of control and 82 % of control
T/C [9]: 79 % of control and 88 % of control

CSc1ncc2ncn(C3OC(CO)C(O)C3O)c2n1 (centres undefined)
T/C [11]: 194 % of control
T/C [10]: 56 % of control

CC(C)NC(=O)N(CCCCBr)N=O
T/C [11]: 90 % of control
T/C [12]: 86 % of control
T/C [13]: 70 % of control
T/C [9]: 56 % of control

C=C/C(C)=C/[C@H](C)C(=O)C[C@H](O)CC1CC(=O)NC(=O)C1
T/C [2]: 111 % of control
T/C [3]: 102 % of control
T/C [4]: 89 % of control
T/C (dose: 100.0 mg/kg/injection, schedule: Q07DX002 (ip), vehicle: saline with Tween-80): 102 % of control
